{"source": "ChEMBL document CHEMBL1201862", "about": "“PubChem BioAssay data set” (2004)", "key": {"[1]": {"test": "cytotoxicity in HEK-293T cells, dose response, cytotoxicity control for TCR NF-kB inhibitor project, luminescence, T-cell screen hits (AID 489026);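 also: cells exposed to compound about 14 hours before the viability readout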", "format": "functional, cell-based"}, "HT-1080": {"tested_on": "HT-1080", "test": "cytotoxicity in HT1080 fibrosarcoma cells, cell-based, fluorescence readout (AID 620)", "format": "functional", "settings": "Homo sapiens"}, "BJ [2]": {"tested_on": "BJ", "test": "cells", "format": "functional, cell-based", "settings": "Homo sapiens"}, "BJ [3]": {"tested_on": "BJ", "test": "cytotoxicity toward BJ-TERT-LT-ST fibroblasts, dose response, cell-based, RAS-independent, luminescence (AID 1935);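 also: BJ fibroblasts immortalized with TERT plus LT and ST oncogenes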", "format": "functional", "settings": "Homo sapiens"}, "[4]": {"test": "cytotoxicity toward DRD oncogenic fibroblasts, dose response, cell-based, non-viral oncogenic, luminescence (AID 1934)", "format": "functional", "settings": "Homo sapiens"}, "[5]": {"test": "Luminescence Cell-Based Dose Confirmation HTS to Identify Inhibitors of Platelet Dense Granule Release. [Related pubchem assays: 1663 (Primary HTS), 1678 (Summary of Project)]", "format": "functional"}, "[6]": {"biological_target": "T1, Luciferin 4-monooxygenase (Photinus pyralis, UniProt P08659)", "T1 sequence (P08659 whole entry)": "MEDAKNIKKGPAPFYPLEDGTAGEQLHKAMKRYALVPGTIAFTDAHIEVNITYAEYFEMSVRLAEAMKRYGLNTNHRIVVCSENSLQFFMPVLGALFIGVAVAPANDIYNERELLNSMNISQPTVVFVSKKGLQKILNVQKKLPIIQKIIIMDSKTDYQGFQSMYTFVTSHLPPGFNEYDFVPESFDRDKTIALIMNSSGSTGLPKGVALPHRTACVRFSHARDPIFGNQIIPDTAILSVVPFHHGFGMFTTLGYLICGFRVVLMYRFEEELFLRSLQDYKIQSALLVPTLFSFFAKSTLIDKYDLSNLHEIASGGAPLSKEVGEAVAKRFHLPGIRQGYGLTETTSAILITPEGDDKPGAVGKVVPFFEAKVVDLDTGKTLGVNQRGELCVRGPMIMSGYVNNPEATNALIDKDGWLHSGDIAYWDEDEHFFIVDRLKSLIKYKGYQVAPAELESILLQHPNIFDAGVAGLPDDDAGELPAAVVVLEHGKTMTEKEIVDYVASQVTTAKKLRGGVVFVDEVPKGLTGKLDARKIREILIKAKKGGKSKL", "test": "Counter Screen for Luciferase-based Assay Positives. [Related pubchem assays: 620, 618, 411 ]"}, "[7]": {"biological_target": "T1, Luciferin 4-monooxygenase", "test": "firefly luciferase enzyme inhibitors, dose response, biochemical, luminescence (AID 1891)"}, "[8]": {"test": "Shn3 3'UTR reporter inhibitors, dose response, cell-based, Clone20 osteoblasts, firefly luciferase, cherry-picked (AID 624132)", "format": "functional"}, "BJ [9]": {"tested_on": "BJ", "test": "cytotoxicity toward BJ-TERT fibroblasts, dose response, cell-based, RAS-independent, luminescence (AID 1933)", "format": "functional", "settings": "Homo sapiens"}, "[10]": {"test": "HepG2 cell cytotoxicity, dose response, cytotoxicity control for Shn3 inhibitor project, CellTiter-Glo, cherry-picked (AID 624134)", "format": "functional, cell-based"}, "[11]": {"biological_target": "Voltage-dependent T-type calcium channel subunit alpha-1H (Homo sapiens, UniProt O95180)", "sequence (O95180 whole entry)": "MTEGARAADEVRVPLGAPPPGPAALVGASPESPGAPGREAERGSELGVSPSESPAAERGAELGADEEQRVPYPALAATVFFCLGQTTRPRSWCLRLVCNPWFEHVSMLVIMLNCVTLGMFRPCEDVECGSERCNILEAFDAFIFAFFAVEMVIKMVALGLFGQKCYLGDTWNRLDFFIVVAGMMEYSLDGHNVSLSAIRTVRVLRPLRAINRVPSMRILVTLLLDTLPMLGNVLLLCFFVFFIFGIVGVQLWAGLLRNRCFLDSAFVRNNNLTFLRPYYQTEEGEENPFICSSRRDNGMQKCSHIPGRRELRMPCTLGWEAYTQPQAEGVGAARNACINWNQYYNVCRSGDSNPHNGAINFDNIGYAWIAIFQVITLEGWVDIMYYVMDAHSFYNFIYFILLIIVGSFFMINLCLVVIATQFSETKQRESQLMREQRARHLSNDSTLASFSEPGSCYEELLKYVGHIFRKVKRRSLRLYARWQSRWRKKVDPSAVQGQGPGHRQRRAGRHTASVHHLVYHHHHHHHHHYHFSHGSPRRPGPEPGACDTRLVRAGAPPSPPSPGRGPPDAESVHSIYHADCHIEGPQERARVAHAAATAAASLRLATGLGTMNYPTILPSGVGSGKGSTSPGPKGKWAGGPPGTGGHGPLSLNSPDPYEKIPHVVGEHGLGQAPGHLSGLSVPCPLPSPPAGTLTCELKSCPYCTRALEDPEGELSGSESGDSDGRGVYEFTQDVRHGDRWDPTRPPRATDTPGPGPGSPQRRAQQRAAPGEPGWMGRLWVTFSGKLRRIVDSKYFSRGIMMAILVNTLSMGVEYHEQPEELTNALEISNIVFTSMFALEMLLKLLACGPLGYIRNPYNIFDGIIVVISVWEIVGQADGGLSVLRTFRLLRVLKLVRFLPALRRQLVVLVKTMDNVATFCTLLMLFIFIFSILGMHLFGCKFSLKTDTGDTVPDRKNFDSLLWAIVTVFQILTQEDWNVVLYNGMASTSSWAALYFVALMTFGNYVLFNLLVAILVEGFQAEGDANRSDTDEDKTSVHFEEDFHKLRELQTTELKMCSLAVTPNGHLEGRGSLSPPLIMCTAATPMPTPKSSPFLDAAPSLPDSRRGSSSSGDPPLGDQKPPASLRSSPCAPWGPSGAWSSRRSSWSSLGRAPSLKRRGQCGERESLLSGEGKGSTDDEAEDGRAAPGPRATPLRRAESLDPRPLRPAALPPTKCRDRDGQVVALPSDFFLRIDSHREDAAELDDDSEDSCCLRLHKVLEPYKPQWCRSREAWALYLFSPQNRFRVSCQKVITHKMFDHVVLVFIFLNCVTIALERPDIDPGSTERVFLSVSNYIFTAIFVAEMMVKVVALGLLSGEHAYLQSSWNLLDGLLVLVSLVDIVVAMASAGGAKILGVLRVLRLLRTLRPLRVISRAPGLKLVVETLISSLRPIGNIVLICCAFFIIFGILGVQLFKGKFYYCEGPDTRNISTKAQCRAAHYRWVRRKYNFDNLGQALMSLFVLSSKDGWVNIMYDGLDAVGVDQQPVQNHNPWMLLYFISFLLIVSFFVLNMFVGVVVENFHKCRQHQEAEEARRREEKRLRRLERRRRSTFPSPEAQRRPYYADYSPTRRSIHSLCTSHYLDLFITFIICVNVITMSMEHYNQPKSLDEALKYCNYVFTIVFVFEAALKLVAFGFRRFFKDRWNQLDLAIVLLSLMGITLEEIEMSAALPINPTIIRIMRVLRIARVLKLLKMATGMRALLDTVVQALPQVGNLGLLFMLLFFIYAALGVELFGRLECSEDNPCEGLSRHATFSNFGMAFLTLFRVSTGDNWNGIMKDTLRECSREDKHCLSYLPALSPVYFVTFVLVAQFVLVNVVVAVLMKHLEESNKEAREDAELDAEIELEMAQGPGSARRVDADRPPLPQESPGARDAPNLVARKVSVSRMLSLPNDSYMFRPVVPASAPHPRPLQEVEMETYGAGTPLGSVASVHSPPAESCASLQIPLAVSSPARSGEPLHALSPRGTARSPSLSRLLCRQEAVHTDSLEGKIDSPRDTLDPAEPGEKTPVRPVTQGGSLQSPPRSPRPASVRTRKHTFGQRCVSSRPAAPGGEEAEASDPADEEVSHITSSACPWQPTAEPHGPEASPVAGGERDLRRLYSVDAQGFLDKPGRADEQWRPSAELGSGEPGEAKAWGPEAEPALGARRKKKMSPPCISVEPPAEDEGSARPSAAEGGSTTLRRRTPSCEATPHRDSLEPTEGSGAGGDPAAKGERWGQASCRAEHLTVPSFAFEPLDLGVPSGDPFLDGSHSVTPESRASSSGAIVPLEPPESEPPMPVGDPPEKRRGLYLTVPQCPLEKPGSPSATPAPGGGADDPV", "format": "functional"}, "[12]": {"test": "cytotoxicity in HEK-293T cells, dose response, cytotoxicity control for BCR NF-kB inhibitor project, luminescence, B-cell screen hits (AID 489021);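 also: cells exposed to compound for about 14 hours before viability readout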", "format": "functional, cell-based"}, "[13]": {"biological_target": "DNA dC->dU-editing enzyme APOBEC-3G (Homo sapiens, UniProt Q9HC16)", "sequence (Q9HC16 whole entry)": "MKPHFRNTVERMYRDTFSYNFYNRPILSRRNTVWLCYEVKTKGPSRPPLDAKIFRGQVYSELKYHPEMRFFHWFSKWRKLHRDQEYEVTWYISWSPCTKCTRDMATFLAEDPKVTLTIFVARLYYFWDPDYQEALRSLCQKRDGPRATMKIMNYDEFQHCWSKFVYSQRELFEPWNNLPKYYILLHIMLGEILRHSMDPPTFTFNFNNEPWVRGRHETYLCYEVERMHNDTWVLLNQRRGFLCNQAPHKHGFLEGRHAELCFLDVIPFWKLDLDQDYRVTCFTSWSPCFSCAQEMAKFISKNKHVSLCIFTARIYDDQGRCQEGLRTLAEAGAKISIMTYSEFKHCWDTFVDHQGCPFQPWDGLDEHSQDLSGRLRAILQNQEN", "test": "Dose Response confirmation of small molecule APOBEC3G DNA Deaminase Inhibitors via a fluorescence-based single-stranded DNA deaminase assay. [Related pubchem assays (depositor defined):AID493012, AID493028]", "format": "functional"}, "[14]": {"biological_target": "DNA dC->dU-editing enzyme APOBEC-3A (Homo sapiens, UniProt P31941)", "sequence (P31941 whole entry)": "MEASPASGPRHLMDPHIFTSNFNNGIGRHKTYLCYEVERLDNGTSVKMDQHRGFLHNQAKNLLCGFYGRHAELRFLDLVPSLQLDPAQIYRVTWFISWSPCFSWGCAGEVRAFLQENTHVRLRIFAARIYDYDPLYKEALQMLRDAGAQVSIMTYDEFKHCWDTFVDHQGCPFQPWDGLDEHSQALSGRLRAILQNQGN", "test": "APOBEC3A DNA deaminase inhibitors, dose response, biochemical (AID 504722)", "format": "functional"}, "Large T antigen": {"biological_target": "Large T antigen (Simian virus 40, UniProt P03070)", "sequence (P03070 whole entry)": "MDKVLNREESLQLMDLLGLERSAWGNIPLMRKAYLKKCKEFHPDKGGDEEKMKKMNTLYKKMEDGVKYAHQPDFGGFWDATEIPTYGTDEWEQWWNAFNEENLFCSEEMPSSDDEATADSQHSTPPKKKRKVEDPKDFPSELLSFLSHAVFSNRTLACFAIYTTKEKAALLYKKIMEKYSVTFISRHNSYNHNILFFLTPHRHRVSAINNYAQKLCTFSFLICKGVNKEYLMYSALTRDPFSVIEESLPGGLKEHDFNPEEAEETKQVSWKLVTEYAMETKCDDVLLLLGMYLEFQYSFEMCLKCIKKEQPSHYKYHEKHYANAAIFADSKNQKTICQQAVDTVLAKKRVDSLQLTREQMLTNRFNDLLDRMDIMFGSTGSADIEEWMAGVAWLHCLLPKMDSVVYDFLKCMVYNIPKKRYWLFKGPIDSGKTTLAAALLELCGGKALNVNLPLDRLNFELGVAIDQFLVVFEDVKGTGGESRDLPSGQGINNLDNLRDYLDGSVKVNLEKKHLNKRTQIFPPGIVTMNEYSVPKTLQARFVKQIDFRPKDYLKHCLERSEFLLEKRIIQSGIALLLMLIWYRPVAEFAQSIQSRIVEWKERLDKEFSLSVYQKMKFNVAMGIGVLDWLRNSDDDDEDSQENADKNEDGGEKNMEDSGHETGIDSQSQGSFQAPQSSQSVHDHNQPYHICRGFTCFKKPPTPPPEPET", "format": "functional, Betapolyomavirus macacae"}, "INS1": {"tested_on": "INS1", "test": "beta cell apoptosis inhibitors, cytokine rescue, dose response, luminescence, retest (AID 449756);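 also: cell death triggered by IL-1 beta plus TNF-alpha plus IFN-gamma mixture; protective hits raise ATP signal compared with cytokine alone wells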", "format": "functional, cell-based", "settings": "Rattus norvegicus"}, "[15]": {"test": "Luminescence Cell-Based Dose Response HTS to Identify Inhibitors of 5'UTR Stem-Loop Driven Prion Protein mRNA Translation in H4 Neuroglioblastoma Cells. [Related pubchem assays: 1827 (Project Summary), 1813 (Primary HTS)]", "format": "functional"}, "HEK293": {"tested_on": "HEK293", "test": "inhibitors of LMP1-driven NF-kB reporter, dose response, cell-based, HEK293, luciferase, cherry-pick (AID 588343)", "format": "functional", "settings": "Homo sapiens"}, "[16]": {"test": "inhibitors of SNCA 5'UTR-driven reporter translation, confirmation, H4 neuroglioma cells, luminescence (AID 1988)", "format": "functional, cell-based"}, "[17]": {"test": "inhibitors of firefly luciferase expression or activity, dose response, H4 neuroglioma cells, luminescence (AID 1990)", "format": "functional, cell-based"}, "BJ [18]": {"tested_on": "BJ", "test": "cytotoxicity toward Ras-transformed BJeLR fibroblasts, dose response, cell-based, alamar blue fluorescence, cherrypicked samples (AID 2631)", "format": "functional", "settings": "Homo sapiens"}, "[19]": {"test": "A Cell Based Secondary Assay To Explore Cytotoxicity of Compounds that Sensitize Mycobacterium Tuberculosis to Beta-Lactam Antibiotics.", "format": "functional"}, "[20]": {"test": "growth suppression of PTEN-null colon cells, dose response, cell-based, HCT116 PTEN knockout (AID 1047);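 also: HCT116 colon tumor cells with PTEN knocked out; cells exposed to compound for 60 hours before readout; potency for loss of cell viability measured by luminescence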", "format": "functional"}, "[21]": {"test": "growth suppression of beta-catenin-knockout colon cells, dose response, cell-based, HCT116, human colon tumor (AID 1045);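 also: HCT116 colon tumor cells with beta catenin knocked out; cells exposed to compound for 60 hours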", "format": "functional"}, "[22]": {"test": "inhibitors of Vif binding to APOBEC3G peptide, primary screen, biochemical, TR-FRET, GST-Vif 1-94, biotin-A3G peptide, dose response retest (AID 1117319);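 also: TR-FRET signal of purified GST-Vif binding a biotinylated A3G peptide; inhibitors lower the FRET signal by blocking Vif and A3G binding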", "format": "functional"}, "Leucine aminopeptidase": {"biological_target": "T2, Leucine aminopeptidase (Plasmodium falciparum 3D7, UniProt Q8IL11)", "T2 sequence (Q8IL11 whole entry)": "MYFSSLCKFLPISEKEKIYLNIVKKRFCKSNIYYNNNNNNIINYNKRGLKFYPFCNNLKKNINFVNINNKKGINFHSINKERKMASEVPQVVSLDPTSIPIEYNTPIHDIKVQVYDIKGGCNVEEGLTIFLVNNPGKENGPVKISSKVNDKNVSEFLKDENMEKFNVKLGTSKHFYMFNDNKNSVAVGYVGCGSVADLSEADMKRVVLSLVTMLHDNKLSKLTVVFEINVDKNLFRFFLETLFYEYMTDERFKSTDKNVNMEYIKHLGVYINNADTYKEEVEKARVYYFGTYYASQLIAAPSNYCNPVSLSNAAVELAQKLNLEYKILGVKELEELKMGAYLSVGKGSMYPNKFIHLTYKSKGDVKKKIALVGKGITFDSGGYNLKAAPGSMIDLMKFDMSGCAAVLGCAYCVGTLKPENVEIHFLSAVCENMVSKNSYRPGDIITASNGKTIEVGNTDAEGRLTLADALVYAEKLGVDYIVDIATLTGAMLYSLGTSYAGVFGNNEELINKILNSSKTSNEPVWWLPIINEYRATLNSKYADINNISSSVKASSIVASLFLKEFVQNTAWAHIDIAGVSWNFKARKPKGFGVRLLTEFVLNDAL", "test": "P. falciparum M17LAP inhibitors, primary screen, biochemical, fluorogenic H-Leu-NHMec substrate, 1536-well (AID 1619)", "format": "functional"}, "Escherichia coli": {"tested_on": "Escherichia coli", "test": "microbe, parasite or virus in culture"}}, "note": "Calls of active or inactive are those of the source.", "data": [{"compound": "Cc1ccc(-c2nc(-c3ccccn3)no2)cc1", "values": [{"measurement": "IC50", "setting": "[1]", "value": "> 80 µM (inactive)"}, {"measurement": "EC50", "setting": "HT-1080", "value": "> 50 µM (not active)"}, {"measurement": "EC50", "setting": "BJ [2]", "value": "5.39 µM (active)"}, {"measurement": "EC50", "setting": "BJ [3]", "value": "17.4 µM (active)"}, {"measurement": "EC50", "setting": "[4]", "value": "5.41 µM (active)"}, {"measurement": "EC50", "setting": "[5]", "value": "2.52 µM (active)"}, {"measurement": "EC50", "setting": "[6]", "value": "0.81 µM (active)"}, {"measurement": "EC50", "setting": "[7]", "value": "0.593 µM (active)"}, {"measurement": "AC50", "setting": "[8]", "value": "1.96 µM (active)"}, {"measurement": "EC50", "setting": "BJ [9]", "value": "7.04 µM (active)"}, {"measurement": "AC50", "setting": "[10]", "value": "8.99 µM (active)"}]}, {"compound": "Cc1ccc(-c2noc(CSc3nnc(Cc4ccccc4)n3-c3ccc(Cl)cc3)n2)cc1", "values": [{"measurement": "EC50", "setting": "[11]", "value": "4.98 µM (active)"}]}, {"compound": "Cc1cccn2c(=O)c3cc(C(=O)NC4CCCCC4)c(=N)n(CCN4CCOCC4)c3nc12", "values": [{"measurement": "IC50", "setting": "[12]", "value": "> 80 µM (inactive)"}]}, {"compound": "ClCc1nnc(-c2ccccc2)o1", "values": [{"measurement": "IC50", "setting": "[12]", "value": "> 80 µM (inactive)"}]}, {"compound": "COc1ccccc1/C=C/C=N/n1c(S)nnc1-c1ccncc1", "values": [{"measurement": "IC50", "setting": "[13]", "value": "2.21 µM (active)"}, {"measurement": "IC50", "setting": "[14]", "value": "> 100 µM (inactive)"}]}, {"compound": "CC(/C=N/n1c(S)nnc1-c1[nH]nc2c1CCC2)=C\\c1ccco1", "values": [{"measurement": "IC50", "setting": "[13]", "value": "2.29 µM (active)"}, {"measurement": "IC50", "setting": "[14]", "value": "> 100 µM (inactive)"}, {"measurement": "IC50", "setting": "Large T antigen", "value": "32.3 µM (active)"}]}, {"compound": "COc1cccc(C(=O)/C=C/Nc2cccc(O)c2)c1", "values": [{"measurement": "EC50", "setting": "HT-1080", "value": "> 50 µM (not active)"}, {"measurement": "EC50", "setting": "[5]", "value": "2.07 µM (active)"}, {"measurement": "EC50", "setting": "[6]", "value": "0.56 µM (active)"}, {"measurement": "EC50", "setting": "[7]", "value": "1.38 µM (active)"}]}, {"compound": "CCCCC/N=C\\c1c(C)nn(-c2nc3ccccc3s2)c1O", "values": [{"measurement": "AC50", "setting": "INS1", "value": "2.69 µM (active)"}, {"measurement": "EC50", "setting": "HT-1080", "value": "> 50 µM (not active)"}, {"measurement": "EC50", "setting": "[15]", "value": "6.84 µM (active)"}, {"measurement": "AC50", "setting": "HEK293", "value": "3.89 µM (active)"}, {"measurement": "EC50", "setting": "BJ [2]", "value": "2.32 µM (active)"}, {"measurement": "EC50", "setting": "BJ [3]", "value": "4.84 µM (active)"}, {"measurement": "EC50", "setting": "[4]", "value": "2.01 µM (active)"}, {"measurement": "EC50", "setting": "[6]", "value": "1.93 µM (active)"}, {"measurement": "EC50", "setting": "[16]", "value": "7.25 µM (active)"}, {"measurement": "EC50", "setting": "[17]", "value": "9.33 µM (inconclusive)"}, {"measurement": "EC50", "setting": "BJ [18]", "value": "> 133 µM (inactive)"}, {"measurement": "EC50", "setting": "BJ [9]", "value": "1.26 µM (active)"}]}, {"compound": "C/C(=N/NC(=O)c1ccc(Cl)s1)c1ccc(NC(=O)COc2ccc(Cl)cc2)cc1", "values": [{"measurement": "CC50", "setting": "[19]", "value": "> 40 µM (active)"}, {"measurement": "EC50", "setting": "[20]", "value": "24 µM (active)"}, {"measurement": "EC50", "setting": "[21]", "value": "22.2 µM (active)"}]}, {"compound": "CCc1ccc(-c2cc(C(=O)Nc3ccc(S(=O)(=O)NC(C)=O)cc3)c3ccccc3n2)cc1", "values": [{"measurement": "IC50", "setting": "[22]", "value": "> 100 µM (active)"}, {"measurement": "IC50", "setting": "Leucine aminopeptidase", "value": "7.8 µM (active)"}, {"measurement": "AC50", "setting": "Escherichia coli", "value": "38.6 µM (active)"}]}]}
